Test system: callose deposition
Test: Callose deposition in Arabidopsis after Peronospora parasitica infection
Format: in vivo
Details: positive control plants treated with BABA
Protocol: This is represented by the disease index on the Y axis. […] Resistance assays were performed as described previously (Plant Cell 1996, 8, 1225-1237; Plant cell 1998, 10, 1571-1580). B. KO of RKS4 (rks4-1; increased expression of N-terminus, see FIG. 4) also increases resistance to Peronospora parasitica, although less than the positive control induced with β-aminobutyric acid (BABA). Plants were scored using an arbitrary scale I-IV, in which I means normal to very slight symptoms and IV means severe symptoms to death. C. […] Both tests were performed as described in (Plant Cell., 2005, 17, 987-999).
Callose deposition was observed on Arabidopsis leaves after infection with Hyaloperonospora parasitica essentially as described by Ton et al. (Plant Cell (2005) 17(3):987-999).

CC(N)CC(=O)O (stereo not drawn) [BABA, β-aminobutyric acid]
Callose deposition upon treatment: increased
